Data reported in a melting point compilation (Tetko et al.; mined from patent text by program, amines drawn as free bases though some values may be those of a salt).

In the case of `CCOCc1nc2c(N)nc3ccccc3c2n1N1CCOCC1`, the melting point is reported as 223 to 224 °C. For `COC(=O)C(C)Oc1ccc(Oc2ccc(Br)cc2F)cc1` (centres undefined), the melting point was 62 to 64 °C. In the case of `Cc1ccc(C(=O)O)c(OCc2ccc(OCCc3nc(-c4ccccc4)oc3C)cc2)c1`, the melting point is reported as 116 to 118 °C. `Cc1ccnc2c1nc(-c1cccnc1N)n2-c1ccc(CC(=O)Nc2ccccc2)cc1` showed a melting point of 236 to 238 °C. `Nc1nnc(-c2cccc(OC(F)(F)C(F)F)c2)c(N)n1` showed a melting point of 199 to 200 °C. `CCCCN(CCCC)Cc1cc(NC(=O)Nc2c(C(C)C)cccc2C(C)C)n(Cc2ccccc2)n1` showed a melting point of 149 to 152 °C. `CN(C)Cc1ccc2sc(S(N)(=O)=O)cc2c1` showed a melting point of 172 to 174 °C. For `C#CCN(c1ccc(C(=O)NC(CCCCC(=O)O)C(=O)O)cc1)C1CCc2cc3nc(C)[nH]c(=O)c3cc21` (mixture of isomers), the melting point was 165 °C. Work on `C#CCOc1cc(NC(=O)CC(CC(=O)O)C(F)(F)F)ccc1Cl` (centres undefined) yielded a melting point of 128 to 130 °C. `C=CC(=O)OCCCCCCN(C)c1ccc(C=Cc2ccc(S(C)(=O)=O)cc2)cc1` gave a melting point of 88 to 90 °C. Work on `O=C(Nc1nnn[nH]1)c1cc2c(cc1[N+](=O)[O-])OCO2` yielded a melting point of 279 °C. `O=Cc1ccc2c(c1)S(=O)(=O)c1ccccc1C=C2` gave a melting point of 167 to 171 °C. `Cc1sc2c(c1C)C(c1ccc(Cl)cc1)=NC(CC(=O)NCc1cccnc1)c1nnc(C)n1-2` (centres undefined) gave a melting point of 180 to 183 °C. `Nc1ccc(C2=NNC(=O)CC2)cc1[N+](=O)[O-]` gave a melting point greater than 330 °C. For `Clc1ccc2c(c1)C(c1ccccc1)=NCCN2C1=NCCO1`, the melting point was 125 to 126 °C. In the case of `C#CCOc1cc(-n2c(=O)cc(C(F)(F)F)n(C)c2=O)c(F)cc1Br`, the melting point is reported as 134 °C. For `COC(=O)C[C@H](O)C[C@H](O)C=Cc1c(-c2ccc(F)cc2)c(-c2ccccc2)c(C(=O)Nc2cccc(S(N)(=O)=O)c2)n1C(C)C`, the melting point was 85 to 87 °C. `O=C1c2cc(F)ccc2CCC1CN1CCC2(CC1)C(=O)NCN2c1ccccc1` (centres undefined) showed a melting point of 162 to 165 °C. For `O=C(Cl)N1CC(Oc2cc(C(F)(F)F)ccc2Cl)C1`, the melting point was 40 to 45 °C. `CC(C)(C)c1cc(C(=O)NCc2cccc([N+](=O)[O-])c2)cc(C(C)(C)C)c1O` gave a melting point of 210 to 211 °C. `CN1C2CCC1CC(N(C)S(=O)(=O)c1ccc(Nc3nccc(Nc4ccc(F)cc4)n3)cc1)C2` (centres undefined) gave a melting point of 184 °C. In the case of `CCOC(=O)C1(c2cccc(OCc3ccc4c(ccc(=O)n4C)c3)c2)CCOCC1`, the melting point is reported as 109 to 110 °C. Work on `CCN(CC)CCNC(=O)c1cc(Cl)c(N)cc1OCC(OC)OC` yielded a melting point of 64 to 67 °C. With `CCCS(=O)(=O)N1CCC(c2nc3cc(-c4ccc(C(N)=O)c(F)c4)ccc3o2)CC1` the melting point was 222 to 225 °C. `CC(CCCCCCCCCCCCC(=O)O)CC(=O)O` (centres undefined) gave a melting point of 77 to 78 °C. Work on `CCCC(O)c1cccc(NC(=O)OCc2ccccc2)c1` (centres undefined) yielded a melting point of 103 to 106 °C. In the case of `S=C1Nc2ccccc2Sc2ccccc21`, the melting point is reported as 245 to 246 °C. In the case of `O=C(O)[C@@H]1Cc2cc(O)c(O)cc2CN1C(=O)c1ccccc1`, the melting point is reported as 189 to 192 °C. For `Cc1ccc2c(c1)C(=O)CC2c1ccc(F)cc1` (centres undefined), the melting point was 68 to 70 °C. `COc1ccc(Nc2nc(NN3CCCCCC3)nc(N(C)C3CCNCC3)n2)cc1Cl` gave a melting point of 81 °C. `Cc1cc(F)c(NS(=O)(=O)c2ccccc2)cc1NS(=O)(=O)c1ccccc1` showed a melting point of 146 °C. For `COC(=O)Cc1ccc(O)c(NC(=O)C(C)(C)C)c1`, the melting point was 112 to 113 °C. In the case of `CN(C)C(=O)c1cc2c(c(C(=O)O)c1)OC(c1ccccc1)(c1ccccc1)O2`, the melting point is reported as 207 to 208 °C. Work on `CCSC1CCC(=O)N1S(=O)(=O)c1ccccc1` (centres undefined) yielded a melting point of 100 to 113 °C. With `CCOC(=O)/C(=C\Nc1ccccc1OC)c1ccc(OC)cc1` the melting point was 58 to 59 °C. `CC#CCOc1ccc(S(=O)(=O)C(C(=O)NO)C2CCNCC2)cc1` (centres undefined) gave a melting point of 140 °C. `COc1cc(Nc2c(C#N)cnc3cc(-c4csc(CN5CCN(C)CC5)c4)sc23)c(Cl)cc1Cl` showed a melting point of 224 to 226 °C. `CNCCOc1ccc(NC(=O)c2ccc(N3CCNCC3)cc2)c(C)c1` gave a melting point of 136 to 137 °C. With `Cc1c(F)cc(C(=O)O)c(Cl)c1Cl` the melting point was 179 to 180 °C. With `O=S(=O)(Nc1ccc(C2COc3cc(O)c(O)cc3C2)cc1)c1ccccc1` (centres undefined) the melting point was 152 to 154 °C. For `Cc1ccc(S(=O)(=O)N2[C@@H](c3nn[nH]n3)CC[C@H]2c2ccc(F)cc2)cc1` (racemic), the melting point was 150 °C. Work on `C=Cc1ccc(CN2C(=O)c3ccccc3C2=O)c2ccccc12` yielded a melting point of 146 to 147 °C. Molecule `CCc1cn(C2CC(O)C(CCCNC(=O)Cc3c(Cl)cccc3Cl)O2)c(=O)[nH]c1=O` (centres undefined) has a melting point of 227 to 229 °C. For `CCOC(=O)c1c(N)c2cccnc2n(C)c1=O`, the melting point was 203 to 206 °C. `COc1ccc2nc(-c3ccc(C)c(C)c3)n(-c3ccccc3)c2c1` gave a melting point of 251 °C. With `CCOC(=O)c1cn2c3c(c(F)c(F)c(F)c3c1=O)CCN2C` the melting point was 236 to 240 °C. Work on `CCCC(=O)C(=CNc1cccc(COC(=O)c2ccccc2)c1)C(=O)OCC` yielded a melting point of 59 to 63 °C. `N#Cc1c(N2CCN(C(=O)c3ccc(C(F)(F)F)cc3)CC2)c2ccccc2n(Cc2ccc(F)cc2)c1=O` gave a melting point of 181 to 185 °C. In the case of `Cc1ccc2cc(NC(=O)c3cccc(CCc4cc(Nc5ccccc5)n[nH]4)c3)ccc2n1`, the melting point is reported as 98 to 102 °C. With `COC(=O)NC(=S)Nc1ccccc1NC(=O)CCl` the melting point was 156 to 158 °C. Work on `NC(=O)c1cc(NCc2c(F)c(F)c(C(F)(F)F)c(F)c2F)ccc1O` yielded a melting point of 143 to 145 °C. `CC(=Cc1ccc(O)c(Br)c1)[N+](=O)[O-]` showed a melting point of 122 to 124 °C. `COc1nc(C(C)(C)O)cnc1NS(=O)(=O)c1cccc(Cl)c1Cl` showed a melting point of 192 to 193 °C. Work on `CC(C)(C)C=Cc1nn(-c2ccc(F)cc2F)c2c1C1CCC2C1` (centres undefined) yielded a melting point of 98 to 101 °C. Work on `O=C(C=Cc1c(Cl)cccc1Cl)c1c(Cl)cccc1Cl` yielded a melting point of 124 to 125 °C. In the case of `CC1Nc2ccc3c(c2N1C)OC(CN1CC=C(c2c[nH]c4ccccc24)CC1)CO3` (centres undefined), the melting point is reported as 186 to 188 °C. For `Cn1ncc(/C=C/C(=O)Nc2ccc(Cc3nn(C)c(=O)o3)cc2)c1-c1ccc(F)cc1`, the melting point was 200 to 201 °C. With `CC(=O)N[C@H]1CC[C@H](CCC(=O)O)CC1` the melting point was 193 to 196 °C. With `CCC(C#N)(Cn1cncn1)c1ccc(Br)cc1` (centres undefined) the melting point was 68 to 70 °C. With `CC(O)=CC(N)=NC(C)(C)C` the melting point was 119 to 125 °C. Work on `COC(=O)c1cc2cc(OC)c(OC)cc2c(-c2ccnc(-n3c(=O)ccc4ccccc43)c2)c1C(=O)OC` yielded a melting point greater than 230 °C. `Cc1cccc(NC(=O)NCC(=O)N(CC(=O)N(C)c2ccc(F)cc2F)c2ccccc2)c1` gave a melting point of 100 °C. For `O=C(OC1COCCC1=O)c1ccccc1` (centres undefined), the melting point was 76 to 77 °C. `COc1ccc(CC(=O)Nc2ccc3c(c2)[C@@H](OCCc2ccccc2)[C@H](O)C(C)(C)O3)cc1` (relative stereo) showed a melting point of 161 to 162 °C. In the case of `O=C1CN(C(=O)c2ccc(Cl)cc2)N(Cc2ccc(Cl)cc2)C(=O)N1`, the melting point is reported as 202 °C. Molecule `CN1C(=O)C(c2ccc(OC(F)F)cc2)(c2cccc(OC(F)F)c2)N=C1N` (centres undefined) has a melting point of 52 to 54 °C. For `CCN(CC(OC)OC)C(=O)Nc1ccc(C(O)(C(F)(F)F)C(F)(F)F)cc1`, the melting point was 138 to 140 °C. `O=c1n(-c2cc(O)c(Cl)cc2Cl)nc2n1CCCC2` showed a melting point of 211 to 212 °C. Molecule `CC(C)(C)c1ocnc1C=C(O)C(=O)N[C@@H](Cc1ccccc1)C(N)=O` has a melting point of 50 to 53 °C.
